# Source: ChEMBL document CHEMBL1201862, “PubChem BioAssay data set” (2004)
#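 In this assay, cells in 96-well plates receive the compound at five concentrations for 48 hours. Endpoints are linearly interpolated between the surrounding concentrations. GI50: concentration for 50% inhibition of growth.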 Activity calls are given as the source filed them. No stated cut-off is given here; in the data, active = GI50 up to about 1.1 µM and inactive = higher.
# Tests used:
# Test in all cases: growth of human tumour cells (NCI), 48 h
# SNB-75 = tested on: SNB-75
# DU-145 = tested on: DU-145
# TK-10 = tested on: TK-10
# SR = tested on: SR
# UO-31 = tested on: UO-31
# MCF7 = tested on: MCF7
# K562 = tested on: K562
# T47D = tested on: T47D
# HCT-116 = tested on: HCT-116
# HCC 2998 = tested on: HCC 2998
# CAKI-1 = tested on: CAKI-1
# NCI-H23 = tested on: NCI-H23
# SF-295 = tested on: SF-295
# OVCAR-3 = tested on: OVCAR-3
# CCRF-CEM = tested on: CCRF-CEM
# HL-60 = tested on: HL-60
# M14 = tested on: M14
Structure (SMILES),GI50 (SNB-75),GI50 (DU-145),GI50 (TK-10),GI50 (SR),GI50 (UO-31),GI50 (MCF7),GI50 (K562),GI50 (T47D),GI50 (HCT-116),GI50 (HCC 2998),GI50 (CAKI-1),GI50 (NCI-H23),GI50 (SF-295),GI50 (OVCAR-3),GI50 (CCRF-CEM),GI50 (HL-60),GI50 (M14)
CCC1C(c2cc(OC)c(OC)c(OC)c2)c2cc3c(cc2OC1N1CCCC1)OCO3 (stereo not drawn),2.46 µM (inactive),2.37 µM (inactive),7.91 µM (inactive),1.17 µM (inactive),4.1 µM (inactive),0.542 µM (active),0.752 µM (active),3.78 µM (inactive),1.32 µM (inactive),2.74 µM (inactive),0.598 µM (active),4.46 µM (inactive),1.07 µM (active),1.45 µM (inactive),1.16 µM (inactive),1.57 µM (inactive),1.75 µM (inactive)
CS/C(C#N)=C(\C#N)SC,52.2 µM (inactive),13.6 µM (inactive),6.55 µM (inactive),1.24 µM (inactive),4.18 µM (inactive),2.22 µM (inactive),4.11 µM (inactive),4.19 µM (inactive),20.9 µM (inactive),2.99 µM (inactive),6.04 µM (inactive),5.61 µM (inactive),18.5 µM (inactive),1.77 µM (inactive),5.6 µM (inactive),1.79 µM (inactive),2.48 µM (inactive)
O=[N+]([O-])c1ccc(/C(=N/c2ccccc2)SS/C(=N\c2ccccc2)c2ccc([N+](=O)[O-])o2)o1,1.66 µM (inactive),1.69 µM (inactive),3.13 µM (inactive),0.425 µM (active),1.47 µM (inactive),0.444 µM (active),1.34 µM (inactive),2.2 µM (inactive),1.5 µM (inactive),1.59 µM (inactive),1.97 µM (inactive),1.6 µM (inactive),2.76 µM (inactive),1.53 µM (inactive),2.03 µM (inactive),2.09 µM (inactive),1.98 µM (inactive)
Cc1cc(=O)[nH]c2cc(NC(=O)C(C)NC(=O)C(C)NC(=O)C(C)NC(=O)OC(C)(C)C)ccc12 (stereo not drawn),> 15 µM (inactive),> 15 µM (inactive),> 15 µM (inactive),> 15 µM (inactive),> 15 µM (inactive),> 15 µM (inactive),> 15 µM (inactive),> 15 µM (inactive),> 15 µM (inactive),> 15 µM (inactive),> 15 µM (inactive),> 15 µM (inactive),> 15 µM (inactive),,> 15 µM (inactive),> 15 µM (inactive),> 15 µM (inactive)
CCOC(=O)N1CCC2(CC1)C[C@](Sc1ccccc1)(C(C)=O)[C@H](C)O2,> 100 µM (inactive),> 100 µM (inactive),> 100 µM (inactive),> 100 µM (inactive),> 100 µM (inactive),> 100 µM (inactive),> 100 µM (inactive),> 100 µM (inactive),,> 100 µM (inactive),> 100 µM (inactive),> 100 µM (inactive),> 100 µM (inactive),> 100 µM (inactive),12.1 µM (inactive),> 100 µM (inactive),> 100 µM (inactive)
CC(C)NC(=O)OCc1c(COC(=O)NC(C)C)c(-c2ccc[n+](COC(=O)CC(C)(C)C)c2)n2c1CCC2,67.6 µM (inactive),> 100 µM (inactive),> 100 µM (inactive),71.1 µM (inactive),93.8 µM (inactive),70.1 µM (inactive),> 100 µM (inactive),> 100 µM (inactive),> 100 µM (inactive),> 100 µM (inactive),38.5 µM (inactive),48.6 µM (inactive),60.5 µM (inactive),> 100 µM (inactive),> 100 µM (inactive),> 100 µM (inactive),> 100 µM (inactive)
O=C1OC(OC/C(Br)=C(\Br)COC2OC(=O)C(Cl)=C2Cl)C(Cl)=C1Cl (stereo not drawn),15.9 µM (inactive),15.1 µM (inactive),4.67 µM (inactive),0.9 µM (active),3.18 µM (inactive),4.41 µM (inactive),1.14 µM (inactive),12.6 µM (inactive),1.86 µM (inactive),17.9 µM (inactive),2.26 µM (inactive),3.18 µM (inactive),18.3 µM (inactive),3.95 µM (inactive),0.659 µM (active),0.324 µM (active),3.66 µM (inactive)
Cc1ccc(S(=O)(=O)N/N=C/C(Br)=C(/Br)C(=O)O)cc1,22.1 µM (inactive),12.2 µM (inactive),7.69 µM (inactive),0.321 µM (active),4.66 µM (inactive),7.41 µM (inactive),,4.57 µM (inactive),1.91 µM (inactive),4.29 µM (inactive),5.64 µM (inactive),6.1 µM (inactive),14.1 µM (inactive),6.97 µM (inactive),1.42 µM (inactive),1.93 µM (inactive),4.53 µM (inactive)
CC(=O)O[C@H]1C(=O)[C@@]2(C)[C@H]([C@H](OC(=O)C3CCCCC3)[C@]3(O)C[C@H](OC(=O)[C@H](O)[C@@H](NC(=O)C4CCCCC4)C4CCCCC4)C(C)=C1C3(C)C)[C@]1(OC(C)=O)CO[C@@H]1C[C@@H]2O,0.0508 µM (active),0.151 µM (active),0.0451 µM (active),0.0082 µM (active),0.344 µM (active),0.00569 µM (active),0.0128 µM (active),0.0219 µM (active),0.00439 µM (active),0.0442 µM (active),0.105 µM (active),< 0.0132 µM (active),0.0321 µM (active),0.00386 µM (active),0.0234 µM (active),0.00586 µM (active),0.00889 µM (active)
COc1ccc(-c2cc(-c3ccc(Nc4ccnc5cc(Cl)ccc45)cc3)[nH]c(=O)c2C#N)c2ccccc12,3.2 µM (inactive),5.33 µM (inactive),8.63 µM (inactive),0.413 µM (active),5.32 µM (inactive),1.92 µM (inactive),2.37 µM (inactive),1.88 µM (inactive),2.16 µM (inactive),5.51 µM (inactive),9.46 µM (inactive),20.3 µM (inactive),17.7 µM (inactive),2.18 µM (inactive),1.09 µM (active),3.03 µM (inactive),2.03 µM (inactive)
O=C1C(Br)=CC2(C=C1Br)CCNC1=C2C(=O)c2ncccc2C1=O,1.4 µM (inactive),1.68 µM (inactive),2.32 µM (inactive),0.457 µM (active),1.07 µM (active),1.14 µM (inactive),0.266 µM (active),1.97 µM (inactive),0.634 µM (active),1.98 µM (inactive),1.61 µM (inactive),0.39 µM (active),1.37 µM (inactive),1.62 µM (inactive),1.58 µM (inactive),1.06 µM (active),1.55 µM (inactive)
CC1=CC(=O)C(C(O)(C(F)(F)F)C(F)(F)F)C(C)(C)C1 (stereo not drawn),> 10 µM (inactive),> 10 µM (inactive),> 10 µM (inactive),> 10 µM (inactive),> 10 µM (inactive),> 10 µM (inactive),> 10 µM (inactive),> 10 µM (inactive),> 10 µM (inactive),> 10 µM (inactive),> 10 µM (inactive),> 10 µM (inactive),> 10 µM (inactive),> 10 µM (inactive),> 10 µM (inactive),> 10 µM (inactive),> 10 µM (inactive)
Nc1nc(N)c2cc(-c3ccccc3)cnc2n1,3.61 µM (inactive),> 10 µM (inactive),16.3 µM (inactive),6.18 µM (inactive),13 µM (inactive),16.3 µM (inactive),3.36 µM (inactive),36.8 µM (inactive),4.66 µM (inactive),33 µM (inactive),16 µM (inactive),12.9 µM (inactive),17 µM (inactive),18.2 µM (inactive),20.1 µM (inactive),13.3 µM (inactive),12.9 µM (inactive)
Cc1ccc(S(=O)(=O)OI(O)CC(F)(F)F)cc1,> 100 µM (inactive),> 100 µM (inactive),> 100 µM (inactive),> 100 µM (inactive),> 100 µM (inactive),> 100 µM (inactive),> 100 µM (inactive),> 100 µM (inactive),> 100 µM (inactive),> 100 µM (inactive),> 100 µM (inactive),> 100 µM (inactive),> 100 µM (inactive),> 100 µM (inactive),> 100 µM (inactive),> 100 µM (inactive),> 100 µM (inactive)
Nc1ncnc2c1ncn2C1OC(CO)C(O)C1NS(=O)(=O)c1ccccc1 (stereo not drawn),> 100 µM (inactive),> 100 µM (inactive),> 100 µM (inactive),> 100 µM (inactive),> 100 µM (inactive),> 100 µM (inactive),> 100 µM (inactive),> 100 µM (inactive),> 100 µM (inactive),> 100 µM (inactive),> 100 µM (inactive),> 100 µM (inactive),> 100 µM (inactive),> 100 µM (inactive),> 100 µM (inactive),> 100 µM (inactive),> 100 µM (inactive)
N#Cc1ccc(C2ON=C(c3ccccc3)N2C23CC4CC(CC(C4)C2)C3)cc1 (stereo not drawn),> 10 µM (inactive),> 10 µM (inactive),> 10 µM (inactive),3.85 µM (inactive),,> 10 µM (inactive),> 10 µM (inactive),> 10 µM (inactive),> 10 µM (inactive),> 10 µM (inactive),> 10 µM (inactive),> 10 µM (inactive),> 10 µM (inactive),> 10 µM (inactive),> 10 µM (inactive),4.05 µM (inactive),> 10 µM (inactive)
